Test results reported in ChEMBL document CHEMBL1150345 (J Med Chem, 2008).

Target: T1, Histamine H4 receptor (Homo sapiens, UniProt Q9H3N8)
Assay: biochemical
Assay type: cell-based, SK-N-MC
Settings: not given

T1 sequence (Q9H3N8 whole entry): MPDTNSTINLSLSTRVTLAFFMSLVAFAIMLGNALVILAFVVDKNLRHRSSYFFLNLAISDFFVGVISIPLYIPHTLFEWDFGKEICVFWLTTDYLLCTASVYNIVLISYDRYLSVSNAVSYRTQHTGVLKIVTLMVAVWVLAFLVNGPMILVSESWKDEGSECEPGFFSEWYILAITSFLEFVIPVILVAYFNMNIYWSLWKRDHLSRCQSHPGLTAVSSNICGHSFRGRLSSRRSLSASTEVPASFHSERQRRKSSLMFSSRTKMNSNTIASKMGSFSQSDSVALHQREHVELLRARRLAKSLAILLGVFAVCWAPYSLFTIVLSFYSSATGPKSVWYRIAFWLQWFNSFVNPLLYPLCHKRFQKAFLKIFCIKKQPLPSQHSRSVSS

Compared with `NC(=NCCc1ccc(I)cc1)SCCCc1cnc[nH]1` [IODOPHENPROPIT], `NC(=NCc1ccc(Cl)cc1)SCCCc1cnc[nH]1` [CLOBENPROPIT] is 1.6-fold lower in Ki: 7.8 nM for the first, 5 nM for the second.

Compared with `N=C(N)SCCc1cnc[nH]1` [IMETIT], `Cc1cc(C)nc(N=C(N)NCCc2cnc[nH]2)n1` is 24-fold higher in Ki: 3.6 nM for the first, 85 nM for the second.

First: CCOC(=O)c1ccc(NC2=CC(=O)/C(=N\NC(=N)N)c3ccccc32)cc1
Second: C/N=C(\N)N/N=C(/C)c1ccc2sc3ccc(/C(C)=N\N/C(N)=N/C)cc3c2c1
The Ki of the first is 6.8-fold lower: 219 nM for the first, 1480 nM for the second. The first binds more tightly here.

`N=C(N)NCc1cccc(CNC(=N)N)n1` and `CC(/C=C(\C)NNC(=N)N)=N/NC(=N)N` are within 1.5-fold of each other in Ki: 1240 nM for the first, 897 nM for the second.

First: CN(C)CCCSC(=N)N
Second: C[C@@H](N)Cc1c[nH]cn1
The Ki of the first is 2-fold lower: 90 nM for the first, 184 nM for the second. The first binds more tightly here.

Target: T1, Histamine H4 receptor
Assay: Displacement of [3H]histamine from human histamine H4 receptor expressed in […] cells at 5 uM
Assay type: cell-based
Settings: SK-N-MC

First: CC(/C=C/NNC(=N)N)=N/NC(=N)N
Second: CC(/C=C(\C)NNC(=N)N)=N/NC(=N)N
The Activity of the first is lower: 33.9% for the first, 64.3% for the second.

Going from `N=C(N)NC(=N)Nc1ccc(Cl)cc1C(=O)c1ccccc1` to `N=C(N)NN/C(=C(\O)c1ccccc1)c1ccccc1`, the Activity falls from 37.1% to 34.7%.

Compared with `N=C(N)NN=C1C=CC(=NNC(=N)N)C=C1`, `N=C(N)NCc1cccc(CNC(=N)N)n1` is higher in Activity: 44% for the first, 67.8% for the second.

First: CCOC(=O)c1ccc(NC2=CC(=O)/C(=N\NC(=N)N)c3ccccc32)cc1
Second: C[n+]1cccc(NC(=O)c2ccc(NC(=O)c3ccc(C(=O)Nc4ccc(NC(=N)N)cc4)cc3)cc2)c1
The Activity of the first is higher: 92.6% for the first, 26% for the second.

Going from `C/N=C(\N)N/N=C(/C)c1ccc2sc3ccc(/C(C)=N\N/C(N)=N/C)cc3c2c1` to `CN1CCN(c2ccccc2NC(=S)NC(=O)c2cc3ccccc3o2)CC1`, the Activity falls from 72% to 50.3%.

Compared with `Cc1cc(C)nc(N/C(N)=N/CCc2c[nH]cn2)n1`, `NCCNC(=O)c1cc2ccccc2[nH]1` is lower in Activity: 95.8% for the first, 46.9% for the second.

Compared with `CN1CCN(C(=O)c2cccc(Nc3nc(-c4ccccc4)c4cc(Br)ccc4n3)c2)CC1`, `CN(C)CCCNC(=O)/C(=C\c1cn(-c2ccccc2)nc1-c1ccc(Br)cc1)NC(=O)c1ccccc1` is higher in Activity: 23% for the first, 29.4% for the second.

Going from `COc1cccc(C2NCCc3[nH]cnc32)c1` (stereo unspecified) to `CN(CCN(C)c1ccc(N)cc1)c1ccc(N)cc1`, the Activity rises from 20.9% to 34.3%.
